Reference: patent publication US4177269A, “Novel 17-esters of 17α-hydroxy gestogens, compositions containing such compounds, processes for their preparation and methods of treatment therewith” (Aktiebolaget Leo, priority 1976, dated 1979)

Legend:
[1] = biological target: T1, rabbit uterus cytosol progesterone receptor (Oryctolagus cuniculus, UniProt P06186); experiment: Relative affinity to rabbit uterus cytosol progesterone receptor (3H-progesterone competition); format: binding; conditions: compared to progesterone; 50% competition with 3H-progesterone; 16-18 hours at 4° C.
T1 construct: One ml portions of the supernatant (rabbit uterus cytosol) were pipetted into small centrifuge tubes of glass; from tissue; host or cells: uterus cytosol (105,000×g supernatant) of female rabbits pretreated with polyestradiol phosphate
T1 sequence (P06186 1-930): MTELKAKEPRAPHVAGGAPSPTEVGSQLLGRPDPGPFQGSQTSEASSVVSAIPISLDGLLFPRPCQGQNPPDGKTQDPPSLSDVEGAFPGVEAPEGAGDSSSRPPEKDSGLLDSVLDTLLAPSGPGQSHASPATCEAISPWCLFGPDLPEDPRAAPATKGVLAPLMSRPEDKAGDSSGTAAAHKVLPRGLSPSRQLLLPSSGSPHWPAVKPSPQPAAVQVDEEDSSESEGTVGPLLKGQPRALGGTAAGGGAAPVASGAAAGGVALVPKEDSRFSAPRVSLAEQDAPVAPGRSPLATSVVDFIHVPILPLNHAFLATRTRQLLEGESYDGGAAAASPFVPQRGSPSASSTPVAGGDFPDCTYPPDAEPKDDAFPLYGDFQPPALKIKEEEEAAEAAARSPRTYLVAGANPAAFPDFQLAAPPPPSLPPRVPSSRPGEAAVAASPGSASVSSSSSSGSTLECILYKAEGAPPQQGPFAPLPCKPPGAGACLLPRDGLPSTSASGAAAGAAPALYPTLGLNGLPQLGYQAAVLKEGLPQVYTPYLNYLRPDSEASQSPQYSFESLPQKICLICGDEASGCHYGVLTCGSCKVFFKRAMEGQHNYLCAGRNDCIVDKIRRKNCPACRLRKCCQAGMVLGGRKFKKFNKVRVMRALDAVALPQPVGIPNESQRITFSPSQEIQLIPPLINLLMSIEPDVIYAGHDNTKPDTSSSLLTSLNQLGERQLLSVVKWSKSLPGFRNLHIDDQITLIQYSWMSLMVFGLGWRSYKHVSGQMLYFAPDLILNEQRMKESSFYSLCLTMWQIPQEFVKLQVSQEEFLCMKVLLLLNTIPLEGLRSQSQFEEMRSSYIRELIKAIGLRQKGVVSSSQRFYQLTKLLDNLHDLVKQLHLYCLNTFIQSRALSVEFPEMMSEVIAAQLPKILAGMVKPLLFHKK
Protocol: This example illustrates the compound's relative affinity to rabbit uterus cytosol progesterone receptor compared with progesterone. The method used for this purpose is a modification of methods already described by Kontula, K. et al. (Acta Endocrinol. 78 (1975) 574) and Terenius, L. (Steroids 23 (1974) 909) among others.
Female rabbits (3-4 pounds) from Knut Larsen, Uddevalla, Sweden, were injected i.m. with 1 mg Estradurin (polyestradiol phosphate, 1 mg/ml saline, AB Leo, Sweden). After one week, the animals were killed and the uteri were immediately removed, chilled and cut free from connective tissues. All the following operations were performed at 0°-4° C. The uteri were cut into small pieces and washed several times with 3 vol. of buffer at pH 7.4 containing 50 MM TRIS-HCl, 1.5 mM EDTA, 3 mM NaN3, 2 mM dithiothreitol, and 25% glycerol (by vol.). The tissue was homogenized in the same buffer (3 vol.) with four 15-s bursts at rheostat setting 36-37 of an Ultra Turrax (Janke and Kunkel KG, Staufen, The Federal Republic of Germany). The homogenate was centifuged in a Sorvall GLC-2 centrifuge for 15 min at 600×g. The supernatanate was recentrifuged at 105,000×g for 60 min in a Beckman ultracentrifuge model LB-65-B with rotor SW 56.
One ml portions of the supernatant (rabbit uterus cytosol) were pipetted into small centrifuge tubes of glass and were kept at -70° C. until used. The protein content was determined by the method of Lowry (J. Biol. Chem. 193 (1951) 265).
10.0 mg of each compound was dissolved in 10.0 ml 99.5% ethanol. 100 μl of this standard solution was diluted to 5.0 ml ethanol/glycerol 1:1 (v/v). The ethanol was evaporated by blowing air at 40° C. on the solution. The volume was then adjusted to 5.0 ml by adding buffer without glycerol.
The compounds were diluted with glycerol/buffer 1:1 to final concentrations between 10^-8 -10^-5 M in total 300 μl incubation media. 100 μl of each compound and of each dilution were incubated in small centrifuge tubes (2 ml) together with 100 μl (10 pg) ^3 H-progesterone (1,2,6,7-3H-progesterone, 47.8 Ci/mMol, The Radiochemical Centre, Amersham, England) and 100 μl cytosol adjusted with buffer to a final concentration of about […]. The incubations were carried out for 16-18 hours at 4° C.
The separation of bound from free radioactivity was carried out at 0° C. using the dextran coated charcoal technique (DCC). To each incubation tube was added 0.5 ml DCC-suspension (0.05% dextran-70, Pharmacia, Uppsala, Sweden and 0.5% Norit A, Sigma, Saint Louis, Missouri, U.S.A.) The tubes were agitated 2-3 times during 10 minutes whereupon they were centrifuged at 100×g for five minutes. The supernatantes were decanted directly into Scintillation vials (polyethene, Packard) containing 10 ml InstaGel (Packard). The radioactivity was counted in a Philip's liquid scintillation spectrometer Model PW 4510/00 with external standard and automatic quenching correction.
To incubation tubes were added 100 μl cytosol, 100 μl ^3 H-progesterone (10 pg) and 100 μl of different dilutions of non-radioactive progesterone in glycerol/buffer 1:1 ranging from 0-10^4 pg/100 μl. The tubes were incubated parallel with the compounds described above. The radioactivity was calculated by substracting the counted radioactivity in the incubation tubes with the radioactivity counted in incubations tubes in which the cytosol was replaced with buffer (100 μl).
The concentration of non-radioactive progesterone [P]i which competes for 50% of bound radioactive progesterone was calculated from the standard curve constructed [B] i/[B] o=0.5 where [B]i is the bound radioactivity at different concentrations of non-radioactive progesterone and [B]o is the bound radioactivity at progesterone concentration zero.
In the same manner, curves were constructed for each compound X and the concentration for each compound which competes for 50% with bound ^3 H-progesterone ([X]50) was calculated. […]

[2] = tested on: Lymphatic leukemia L 1210; experiment: Lymphatic leukemia L 1210 survival in mice; format: in vivo, CDF1 (C3H×DBA/2)F1 mice; conditions: one i.p. injection; for Weight change Δv: T - C up to the 5th day
Description: The experimental design and the interpretation of the results are in accordance with the standards set by the CCNSC (Cancer Chemotherpy Reports, January 1959 and December 1962).
Lymphatic leukemia L 1210.
Experimental animals: CDF1 (C3H×DBA/2)F1 mice
Tumour implant: 10^5 tumour cells i.p.
Therapy: One injection i.p. on the day following implanta-
Evaluation: (a) The survival time of the test animals (t)
expressed as the percentage of that of control animals (c).
(b) Weight change in the test animals (T) compared with that
of the control animals (C) up to the 5th day.
(c) The mortality rate must not exceed 35% in the test
animals on the 5th day of therapy.

CC(=O)[C@@]1(OC(=O)COC(=O)c2ccc(C)c(N(CCCl)CCCl)c2)CC[C@H]2[C@@H]3CCC4=CC(=O)CC[C@]4(C)[C@H]3CC[C@@]21C [Compound 3:7, 17α-/3-(N,N-bis(2-chloroethyl)amino)-4-methylbenzoyloxyacetoxy/pregn-4-ene-3,20-dione]
relative binding affinity (RBA) [1]: 1.8% | Effect (survival time of test animals as percentage of that of control animals) ([2]; 250 mg/kg): 130% | Mortality ([2]; 250 mg/kg): 0/20 | Weight change Δv ([2]; 250 mg/kg): -4.0 g | Effect (survival time of test animals as percentage of that of control animals) ([2]; 500 mg/kg): 172% | Mortality ([2]; 500 mg/kg): 0/19 | Weight change Δv ([2]; 500 mg/kg): -5.2 g
